What was measured:
Type in all cases: physicochemical
[1] = Determination of hygroscopic moisture; conditions: 25° C. thermostatic drier over saturated ammonium chloride solution, sodium salt
Method: Determination of hygroscopic moisture: 25±+1° C. Thermostatic Drier (with a saturated solution of ammonium chloride being placed at bottom of the drier).

[2] = Test of influence factors (stability: appearance and relevant materials by HPLC)
Method: Chromatographic conditions of relevant materials: Chromatographic column: charged with octadecylsilane bonded silica as a filler (Agilent ZORBAX Extend C18, 250×4.6 mm, […]); Mobile phase A: 0.025 mol/L of phosphate solution (the pH of 0.025 mol/L of dipotassium phosphate solution was adjusted to 7.2 with phosphoric acid)-acetonitrile (95:5); Mobile phase B: methanol; Mobile phase C: acetonitrile; A linear gradient elution is carried out in accordance with the following table. Detection wavelength: 280 nm, 220 nm (for impurity H) Flowrate: 1.0 ml/min Column temperature: 25° C. Sample size: 5 μl Diluent: the pH of 0.1 mol/L of dipotassium phosphate solution was adjusted to 11.3 with 2 mol/L potassium hydroxide solution-methanol (45:55). Crystal forms A, B, and C (each 100 mg) were placed under different conditions, and sampled at Days 0, 10, 20, and 30 for detecting their characters and relevant materials, respectively.

[3] = Tap density, bulk density, compression coefficient and Hausner ratio; conditions: sodium salt
Method: The compression coefficient and the Hausner ratio closely related thereto are simple and fast methods for predicting the powder property, and are often used as the index for characterizing the powder flowability. Crystal forms A and B were sampled for measuring the tap density and bulk density of powder of different crystal forms, and then the compression coefficient and the Hausner ratio were calculated. Wherein, the compression coefficient (%)=[(the tap density−the bulk density)/the tap density×100%; and the Hausner ratio=the tap density/the bulk density.

[4] = Determination of angle of repose (powder flowability); conditions: average of three determinations; sodium salt
Method: Determination of angle of repose: BT-1001 Intelligent Powder Characteristic Tester (Dandong Bettersize Instrument Co., Ltd.)
Angle of repose is a key characteristic of the frictional resistance between powder particles, and is an important parameter for characterizing the powder flowability. The angle of repose is determined by measuring the height and the base radius of a cone formed by powders, with a calculation equation as follows: tan(α)=height/radius. The angle of reposes of crystal forms A and B were measured and compared for their difference, respectively.

[5] = High temperature / grinding test, change of crystal form by XRPD; conditions: sodium salt
Excerpt: Crystal forms A and C of dexrabeprazole sodium were placed under different conditions as listed in Table 5 below, and sampled for XRPD detection to investigate the change of crystal forms.

[6] = High humidity, RH75 ± 5%, Day 0
[7] = High humidity, RH75 ± 5%, Day 0, sodium salt
[8] = High humidity, RH75 ± 5%, Day 10, sodium salt
[9] = High humidity, RH75 ± 5%, Day 20, sodium salt
[10] = High humidity, RH75 ± 5%, Day 30, sodium salt
[11] = High temperature, 40° C., Day 0
[12] = High temperature, 40° C., Day 0, sodium salt
[13] = High temperature, 40° C., Day 10
[14] = High temperature, 40° C., Day 10, sodium salt
[15] = High temperature, 40° C., Day 20
[16] = High temperature, 40° C., Day 20, sodium salt
[17] = High temperature, 40° C., Day 30
[18] = High temperature, 40° C., Day 30, sodium salt
[19] = Light exposure, 4500 ± 500 Lx, Day 0
[20] = Light exposure, 4500 ± 500 Lx, Day 0, sodium salt
[21] = Light exposure, 4500 ± 500 Lx, Day 10
[22] = Light exposure, 4500 ± 500 Lx, Day 10, sodium salt
[23] = Light exposure, 4500 ± 500 Lx, Day 20
[24] = Light exposure, 4500 ± 500 Lx, Day 20, sodium salt
[25] = Light exposure, 4500 ± 500 Lx, Day 30
[26] = Light exposure, 4500 ± 500 Lx, Day 30, sodium salt

Compound: COCCCOc1ccnc(C[S@@+]([O-])c2nc3ccccc3[n-]2)c1C.[Na+] [Crystal form A, R-(+)-2-{[4-(3-methoxypropoxy)-3-methylpyrid-2-yl]methylsulfinyl}-1H-benzimidazole sodium salt, reference compound]
- Hygroscopic moisture (%) ([1]; 0 h): 4.66%
- Hygroscopic moisture (%) ([1]; 24 h): 5.10%
- Hygroscopic moisture (%) ([1]; 48 h): 5.72%
- Appearance character [2, 6]: Off-white
- Relevant materials: Maximum individual impurity (%) [2, 7]: 0.037%
- Relevant materials: Total impurity (%) [2, 7]: 0.098%
- Appearance character ([2]; High humidity, RH75 ± 5%, Day 10): Yellow
- Relevant materials: Maximum individual impurity (%) [2, 8]: 0.029%
- Relevant materials: Total impurity (%) [2, 8]: 0.152%
- Appearance character ([2]; High humidity, RH75 ± 5%, Day 20): Yellow
- Relevant materials: Maximum individual impurity (%) [2, 9]: 0.200%
- Relevant materials: Total impurity (%) [2, 9]: 0.483%
- Appearance character ([2]; High humidity, RH75 ± 5%, Day 30): Yellow
- Relevant materials: Maximum individual impurity (%) [2, 10]: 0.287%
- Relevant materials: Total impurity (%) [2, 10]: 1.495%
- Appearance character [2, 11]: Off-white
- Relevant materials: Maximum individual impurity (%) [2, 12]: 0.037%
- Relevant materials: Total impurity (%) [2, 12]: 0.098%
- Appearance character [2, 13]: Off-white
- Relevant materials: Maximum individual impurity (%) [2, 14]: 0.037%
- Relevant materials: Total impurity (%) [2, 14]: 0.100%
- Appearance character [2, 15]: Off-white
- Relevant materials: Maximum individual impurity (%) [2, 16]: 0.021%
- Relevant materials: Total impurity (%) [2, 16]: 0.145%
- Appearance character [2, 17]: Off-white
- Relevant materials: Maximum individual impurity (%) [2, 18]: 0.019%
- Relevant materials: Total impurity (%) [2, 18]: 0.210%
- Appearance character [2, 19]: Off-white
- Relevant materials: Maximum individual impurity (%) [2, 20]: 0.037%
- Relevant materials: Total impurity (%) [2, 20]: 0.098%
- Appearance character [2, 21]: Off-white
- Relevant materials: Maximum individual impurity (%) [2, 22]: 0.077%
- Relevant materials: Total impurity (%) [2, 22]: 0.133%
- Appearance character [2, 23]: Off-white
- Relevant materials: Maximum individual impurity (%) [2, 24]: 0.099%
- Relevant materials: Total impurity (%) [2, 24]: 0.298%
- Appearance character [2, 25]: Off-white
- Relevant materials: Maximum individual impurity (%) [2, 26]: 0.123%
- Relevant materials: Total impurity (%) [2, 26]: 0.396%
- Bulk density [3]: 0.267 g · cm^−3
- Tap density [3]: 0.450 g · cm^−3
- Determination of angle of repose, Average [4]: Average: 58.89°
- Comparison of XRPD fit charts (change of crystal form) ([5]; grinded in a mortar for 5 min): partially converted to an amorphous form
- Stability of the crystal form at a high temperature ([5]; high temperature, XRPD): unstable at a high temperature

Compound: COCCCOc1ccnc(C[S@@+]([O-])c2nc3ccccc3[n-]2)c1C.[Na+] [Crystal form B, R-(+)-2-{[4-(3-methoxypropoxy)-3-methylpyrid-2-yl]methylsulfinyl}-1H-benzimidazole sodium salt]
- Hygroscopic moisture (%) ([1]; 0 h): 4.72%
- Hygroscopic moisture (%) ([1]; 24 h): 5.18%
- Hygroscopic moisture (%) ([1]; 48 h): 5.75%
- Appearance character [2, 6]: Off-white
- Relevant materials: Maximum individual impurity (%) [2, 7]: 0.029%
- Relevant materials: Total impurity (%) [2, 7]: 0.088%
- Appearance character [2, 8]: Yellow
- Relevant materials: Maximum individual impurity (%) [2, 8]: 0.017%
- Relevant materials: Total impurity (%) [2, 8]: 0.141%
- Appearance character [2, 9]: Yellow
- Relevant materials: Maximum individual impurity (%) [2, 9]: 0.189%
- Relevant materials: Total impurity (%) [2, 9]: 0.426%
- Appearance character [2, 10]: Yellow
- Relevant materials: Maximum individual impurity (%) [2, 10]: 0.280%
- Relevant materials: Total impurity (%) [2, 10]: 1.300%
- Appearance character [2, 11]: Off-white
- Relevant materials: Maximum individual impurity (%) [2, 12]: 0.029%
- Relevant materials: Total impurity (%) [2, 12]: 0.088%
- Appearance character [2, 13]: Off-white
- Relevant materials: Maximum individual impurity (%) [2, 14]: 0.028%
- Relevant materials: Total impurity (%) [2, 14]: 0.090%
- Appearance character [2, 15]: Off-white
- Relevant materials: Maximum individual impurity (%) [2, 16]: 0.015%
- Relevant materials: Total impurity (%) [2, 16]: 0.126%
- Appearance character [2, 17]: Off-white
- Relevant materials: Maximum individual impurity (%) [2, 18]: 0.012%
- Relevant materials: Total impurity (%) [2, 18]: 0.190%
- Appearance character [2, 19]: Off-white
- Relevant materials: Maximum individual impurity (%) [2, 20]: 0.029%
- Relevant materials: Total impurity (%) [2, 20]: 0.088%
- Appearance character [2, 21]: Off-white
- Relevant materials: Maximum individual impurity (%) [2, 22]: 0.059%
- Relevant materials: Total impurity (%) [2, 22]: 0.120%
- Appearance character [2, 23]: Off-white
- Relevant materials: Maximum individual impurity (%) [2, 24]: 0.155%
- Relevant materials: Total impurity (%) [2, 24]: 0.263%
- Appearance character [2, 25]: Off-white
- Relevant materials: Maximum individual impurity (%) [2, 26]: 0.100%
- Relevant materials: Total impurity (%) [2, 26]: 0.360%
- Stability compared with crystal form A ([2]; light exposure, high temperature, and high humidity): comparable to that of crystal form A
- Compression coefficient ([3]; (tap density − bulk density)/tap density × 100%): 22.72%
- Bulk density [3]: 0.398 g · cm^−3
- Tap density [3]: 0.515 g · cm^−3
- Hausner ratio ([3]; tap density/bulk density): 1.29
- Determination of angle of repose, Average [4]: Average: 36.35°

Reference: patent publication US11078184B2, “Dexrabeprazole sodium compound and pharmaceutical composition thereof” (JIANGSU AOSAIKANG PHARMACEUTICAL CO., LTD., priority 2017, dated 2021)
